Assay results: US12336977B2, “Nitenin analogue compounds and their use in the treatment of chronic and acute pain” (SEA4US-BIOTECNOLOGIA E RECURSOS MARINHOS, LDA., priority 2019, dated 2025)

How the values were obtained:
[1] = tested on: voltage activated K+ currents (Islow, Ifast) of small diameter Dorsal Root Ganglia neurons (sdDRGns); assay: whole-cell voltage-clamp of voltage activated K+ currents in sdDRGns; format: cell-based, rat
[2] = tested on: K+ currents of small diameter dorsal-root ganglion neuron; assay: voltage dependence of steady state of inactivation of K+ currents in sdDRGn; format: cell-based, rat; conditions: sdDRGn
Text: (§1) One can observe a shift to hyperpolarized values during the nitenin treatment. The relationships were better fit with the sum of two Boltzmann functions, showing that in both conditions there are two components: one more hyperpolarized component (component 1) and one other more depolarized component (component 2).
as §1, with “treatment with the compound of formula VI.” for “nitenin treatment.”
as §1, with “treatment with the compound of formula VII.” for “nitenin treatment.”
as §1, with “treatment with the compound of formula VIII.” for “nitenin treatment.”
For the electrophysiological recordings of the ex vivo material, voltage-clamp recordings were performed on neurons isolated from rat DRGs (and TGs). Recordings were performed from the soma that often contained the proximal fraction of axon, 1 hour after the end of the cell isolation process (includes enzymatic and mechanical treatment).

With `O=C1OC(CO)CC1=CCCc1ccoc1` (centres unmarked) [compound of formula VIII-A] the “time constant τ of the sensitive current (current subtraction, single-exponential fit)” value ([1]; 6.5 μg/ml, 29.4 μM) was ~450 ms, the “Vh2 of steady state inactivation” value ([2]; 6.5 μg/ml, 29.4 μM, control −18.1) was −35.5 mV and the “Vh1 of steady state inactivation” value ([2]; 6.5 μg/ml, 29.4 μM, control −53.6) was −88.9 mV.
For `C/C(=C\C1OC(=O)CC1O)CCCc1ccoc1` (centres unmarked) [compound of formula VII], the “Vh2 of steady state inactivation” value ([2]; 0.1 μg/ml, 399 nM, control −13.7) was −32.4 mV and the “Vh1 of steady state inactivation” value ([2]; 0.1 μg/ml, 399 nM, control −64.1) was −92.6 mV.
In the case of `C=CC1OC(=O)CC1O` (centres unmarked) [compound of formula VI], the “time constant τ of the sensitive current (current subtraction, single-exponential fit)” value ([1]; 10 μg/ml, 77.9 μM) is reported as ~795 ms, the “Vh2 of steady state inactivation” value ([2]; 10 μg/ml, 77.9 μM, control −23.9) is reported as −40.5 mV and the “Vh1 of steady state inactivation” value ([2]; 10 μg/ml, 77.9 μM, control −91.0) is reported as −102.9 mV.
